Source: ChEMBL document CHEMBL1201862, “PubChem BioAssay data set” (2004)
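Values below derive from 48-hour exposures of cells grown in 96-well plates, with endpoints linearly interpolated between the two concentrations bracketing the appropriate inhibition level. GI50 is the concentration that inhibits growth by half.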 The source made the active and inactive calls. Cut-off read from the data, not from the text of the source: active = GI50 up to about 1.1 µM and inactive = higher.

Columns and labels:
Assay in all cases: DTP human tumour cell line panel, 48 h
[1] = tested on: DLD-1
[2] = tested on: DMS-114
[3] = tested on: SNB-78
[4] = tested on: DMS-273
[5] = tested on: HOP-18
[6] = tested on: KM-20L2
[7] = tested on: M19-MEL
[8] = tested on: XF498
[9] = tested on: RXF 631

Row | Compound | GI50 [1] | GI50 [2] | GI50 [3] | GI50 [4] | GI50 [5] | GI50 [6] | GI50 [7] | GI50 [8] | GI50 [9]
1 | COc1cc(C2C3=C(COC3=O)Oc3cc4c(cc32)OCO4)cc(OC)c1OC (centres undefined) | 0.022 µM (active) | 0.00962 µM (active) | 0.00849 µM (active) | 0.01 µM (active) | 0.16 µM (active) | 0.0139 µM (active) | 0.0269 µM (active) |  | 
2 | N#Cc1c(-c2ccc(Cl)cc2)c(-c2ccc(Cl)cc2)nn(CCOC(=O)CCC(=O)O)c1=O | 4.13 µM (inactive) | 0.931 µM (active) |  | 2.08 µM (inactive) | 29.2 µM (inactive) | 2.28 µM (inactive) | 1.8 µM (inactive) |  | 
3 | COC(=O)c1nc(N)nc(O)c1CCCCCc1c(O)nc(N)nc1C(=O)OC | > 50 µM (inactive) | > 50 µM (inactive) | > 50 µM (inactive) | > 50 µM (inactive) | > 50 µM (inactive) | > 50 µM (inactive) | > 50 µM (inactive) | > 50 µM (inactive) | > 50 µM (inactive)
4 | O=C1OC(=O)C2C1C1C(c3ccccc3)=C(c3ccccc3)C2(O)C2C(=O)OC(=O)C12 (centres undefined) | 91 µM (inactive) | 28.6 µM (inactive) | 97.7 µM (inactive) |  |  | 91 µM (inactive) | > 100 µM (inactive) |  | 
5 | CCOC(=O)/C(C(=O)c1ccccc1)=C1/NCCN1C | > 100 µM (inactive) |  | > 100 µM (inactive) |  | > 100 µM (inactive) | > 100 µM (inactive) | > 100 µM (inactive) | > 100 µM (inactive) | 
6 | Cc1nc2nn(C)cc2c(=O)n1/N=C/c1ccccc1 | > 100 µM (inactive) | > 100 µM (inactive) | > 100 µM (inactive) | > 100 µM (inactive) | 73.1 µM (inactive) | > 100 µM (inactive) | > 100 µM (inactive) | > 100 µM (inactive) | 
7 | Cc1cc2c(cc1C)[n+]([O-])c(C(=O)CC(=O)C(=O)Nc1ccccc1C)c(C)[n+]2[O-] |  |  | > 100 µM (inactive) | > 100 µM (inactive) | 30.5 µM (inactive) | > 100 µM (inactive) | > 100 µM (inactive) |  | 32 µM (inactive)
8 | O=C1C[C@@H]2[C@@H](CCC23CCCC3)N1 | > 100 µM (inactive) |  | > 100 µM (inactive) | > 100 µM (inactive) | > 100 µM (inactive) | > 100 µM (inactive) | > 100 µM (inactive) |  | 
9 | CC1=C(c2ccccc2)C(c2ccccc2)=C(c2ccccc2)C2(c3ccccc3)C(=O)C(C)CN12 (centres undefined) | 61.8 µM (inactive) |  |  | 46.1 µM (inactive) |  | 45.5 µM (inactive) | 58.5 µM (inactive) | 16.9 µM (inactive) | 
10 | CCOc1ccc(Nc2nc(C)c(C(=O)/C=C/c3ccc(Cl)cc3Cl)s2)cc1 | 26.5 µM (inactive) | 24.9 µM (inactive) | 21.4 µM (inactive) | 21.4 µM (inactive) | 26.3 µM (inactive) | 25.4 µM (inactive) | 26.1 µM (inactive) | 19.6 µM (inactive) | 21.8 µM (inactive)
11 | Cc1ccc(NC(=O)CC/C(CC(=O)C(C)(C)C)=N/NC(=O)C(N)=O)cc1C | > 100 µM (inactive) | > 100 µM (inactive) | > 100 µM (inactive) | > 100 µM (inactive) | > 100 µM (inactive) | > 100 µM (inactive) | > 100 µM (inactive) | > 100 µM (inactive) | > 100 µM (inactive)
12 | Cc1c(C)n(COCCO)c2ncnc(N)c12 | > 100 µM (inactive) |  |  | > 100 µM (inactive) | > 100 µM (inactive) | > 100 µM (inactive) | > 100 µM (inactive) | > 100 µM (inactive) | 
13 | COc1ccc(/C=C2\CCC(CN(C)C)C2=O)cc1 (centres undefined) | 3.62 µM (inactive) | 5.98 µM (inactive) | 13.6 µM (inactive) |  | 6.85 µM (inactive) | 17.1 µM (inactive) | 8.71 µM (inactive) | 4.21 µM (inactive) | 
14 | O=C1C=CC(=O)c2c1ccc1c3ccccc3n(-c3ccccn3)c21 | 16.5 µM (inactive) | 20.6 µM (inactive) | > 100 µM (inactive) | 39.4 µM (inactive) | 14.8 µM (inactive) |  | 21 µM (inactive) | 15.6 µM (inactive) | 
15 | CN(C)c1ccc(/C=N\N2C(=O)c3ccccc3C2=O)cc1 | > 100 µM (inactive) | > 100 µM (inactive) | > 100 µM (inactive) | > 100 µM (inactive) | > 100 µM (inactive) | > 100 µM (inactive) | > 100 µM (inactive) | > 100 µM (inactive) | 
